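Step 1: Grow cells in 96-well plates. Step 2: Expose to compound for 48 hours at 5 concentrations. Step 3: Interpolate endpoints linearly; if unreached, use highest concentration. GI50: concentration for 50% inhibition of growth. TGI marks complete inhibition of growth.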
How the values were obtained:
Test in all cases: NCI anticancer screen, dose series, 48 h
RXF 393 renal = test system: RXF 393 renal
CCRF-CEM leukemia = test system: CCRF-CEM leukemia
K-562 leukemia = test system: K-562 leukemia
COLO 205 colon = test system: COLO 205 colon
UACC-62 melanoma = test system: UACC-62 melanoma
T-47D breast = test system: T-47D breast
MCF7 breast = test system: MCF7 breast
OVCAR-3 ovarian = test system: OVCAR-3 ovarian
BT-549 breast = test system: BT-549 breast
DU-145 prostate = test system: DU-145 prostate
SK-OV-3 ovarian = test system: SK-OV-3 ovarian
HL-60(TB) leukemia = test system: HL-60(TB) leukemia
HT29 colon = test system: HT29 colon
HCT-15 colon = test system: HCT-15 colon
SR leukemia = test system: SR leukemia
HOP-92 NSCLC = test system: HOP-92 NSCLC
UO-31 renal = test system: UO-31 renal
SF-539 CNS = test system: SF-539 CNS
MDA-MB-468 breast = test system: MDA-MB-468 breast
CAKI-1 renal = test system: CAKI-1 renal
RPMI-8226 leukemia = test system: RPMI-8226 leukemia
ACHN renal = test system: ACHN renal
NCI-H460 lung = test system: NCI-H460 lung
OVCAR-8 ovarian = test system: OVCAR-8 ovarian
UACC-257 melanoma = test system: UACC-257 melanoma
OVCAR-5 ovarian = test system: OVCAR-5 ovarian
NCI-H522 lung = test system: NCI-H522 lung
SNB-75 CNS = test system: SNB-75 CNS
TK-10 renal = test system: TK-10 renal
A498 renal = test system: A498 renal
M14 melanoma = test system: M14 melanoma
HS 578T breast = test system: HS 578T breast
A549 NSCLC = test system: A549 NSCLC
PC-3 prostate = test system: PC-3 prostate
NCI-H23 lung = test system: NCI-H23 lung
SF-295 CNS = test system: SF-295 CNS
SF-268 CNS = test system: SF-268 CNS
HOP-62 NSCLC = test system: HOP-62 NSCLC
MALME-3M melanoma = test system: MALME-3M melanoma
SK-MEL-5 melanoma = test system: SK-MEL-5 melanoma
SK-MEL-2 melanoma = test system: SK-MEL-2 melanoma
HCT-116 colon = test system: HCT-116 colon
SN12C renal = test system: SN12C renal
HCC-2998 colon = test system: HCC-2998 colon
OVCAR-4 ovarian = test system: OVCAR-4 ovarian
KM12 colon = test system: KM12 colon
SK-MEL-28 melanoma = test system: SK-MEL-28 melanoma
786-0 renal = test system: 786-0 renal
MDA-MB-435 = test system: MDA-MB-435
EKVX NSCLC = test system: EKVX NSCLC
U251 CNS = test system: U251 CNS
NCI-H226 lung = test system: NCI-H226 lung
IGROV1 ovarian = test system: IGROV1 ovarian
SNB-19 CNS = test system: SNB-19 CNS
SW-620 colon = test system: SW-620 colon
LOX IMVI melanoma = test system: LOX IMVI melanoma
MDA-MB-231 breast = test system: MDA-MB-231 breast
MOLT-4 leukemia = test system: MOLT-4 leukemia

## COc1cc(/C=N/NC(=O)c2ccc3nc(-c4ccc(Cl)cc4)[nH]c3c2)cc(OC)c1OC
RXF 393 renal
  GI50: 2.22 µM
  TGI: 9.02 µM
CCRF-CEM leukemia
  GI50: 6.27 µM
  TGI: > 100 µM
K-562 leukemia
  GI50: 1.96 µM
  TGI: 6.33 µM
COLO 205 colon
  GI50: 2.84 µM
  TGI: 24.4 µM
UACC-62 melanoma
  GI50: 1.24 µM
  TGI: 12.2 µM
T-47D breast
  GI50: 3.48 µM
  TGI: 21 µM
MCF7 breast
  GI50: 0.663 µM
  TGI: 12.5 µM
OVCAR-3 ovarian
  GI50: 2.28 µM
  TGI: 4.88 µM
BT-549 breast
  GI50: 2.69 µM
  TGI: 9.27 µM
DU-145 prostate
  GI50: 6.77 µM
  TGI: 20.9 µM
SK-OV-3 ovarian
  GI50: 15 µM
  TGI: 38.1 µM
HL-60(TB) leukemia
  GI50: 3.9 µM
  TGI: 60.4 µM
HT29 colon
  GI50: 2.98 µM
  TGI: 15.5 µM
HCT-15 colon
  GI50: 73 µM
  TGI: > 100 µM
SR leukemia
  GI50: 3.76 µM
  TGI: 19.1 µM
HOP-92 NSCLC
  GI50: 5.95 µM
  TGI: 23.2 µM
UO-31 renal
  GI50: > 100 µM
  TGI: > 100 µM
SF-539 CNS
  GI50: 2.02 µM
  TGI: 6.98 µM
MDA-MB-468 breast
  GI50: 3.27 µM
  TGI: 10.1 µM
CAKI-1 renal
  GI50: 11.2 µM
  TGI: 30.8 µM
RPMI-8226 leukemia
  GI50: 3.21 µM
  TGI: > 100 µM
ACHN renal
  GI50: 7.93 µM
  TGI: > 100 µM
NCI-H460 lung
  GI50: 3.19 µM
  TGI: 10.2 µM
OVCAR-8 ovarian
  GI50: 3.87 µM
  TGI: 18.9 µM
UACC-257 melanoma
  GI50: 4.67 µM
  TGI: 18.8 µM
OVCAR-5 ovarian
  GI50: 15.6 µM
  TGI: 41.2 µM
NCI-H522 lung
  GI50: 4.9 µM
  TGI: 20.9 µM
SNB-75 CNS
  GI50: 1.28 µM
  TGI: 6.68 µM
TK-10 renal
  GI50: 28.8 µM
  TGI: > 100 µM
A498 renal
  GI50: 26.4 µM
  TGI: 77.6 µM
M14 melanoma
  GI50: 3.77 µM
  TGI: 21.1 µM
HS 578T breast
  GI50: 2.58 µM
  TGI: 7 µM
A549 NSCLC
  GI50: 7.55 µM
  TGI: 38.4 µM
PC-3 prostate
  GI50: 5.73 µM
  TGI: > 100 µM
NCI-H23 lung
  GI50: 4.72 µM
  TGI: 18.8 µM
SF-295 CNS
  GI50: 4.18 µM
  TGI: 15.9 µM
SF-268 CNS
  GI50: 4.4 µM
  TGI: 20.5 µM
HOP-62 NSCLC
  GI50: 4.68 µM
  TGI: 16.4 µM
MALME-3M melanoma
  GI50: 1.12 µM
  TGI: 3.36 µM
SK-MEL-5 melanoma
  GI50: 2.83 µM
  TGI: 12.2 µM
SK-MEL-2 melanoma
  GI50: 11 µM
  TGI: 25 µM
HCT-116 colon
  GI50: 3.26 µM
  TGI: 10.6 µM
SN12C renal
  GI50: 3.22 µM
  TGI: 11 µM
HCC-2998 colon
  GI50: 11.1 µM
  TGI: 29.3 µM
OVCAR-4 ovarian
  GI50: 2.35 µM
  TGI: 7.29 µM
KM12 colon
  GI50: 4.5 µM
  TGI: 17.9 µM
SK-MEL-28 melanoma
  GI50: 1.83 µM
  TGI: 6.78 µM
786-0 renal
  GI50: 4.88 µM
  TGI: 18.7 µM
MDA-MB-435
  GI50: 4.13 µM
  TGI: 15.3 µM
EKVX NSCLC
  GI50: 14.8 µM
  TGI: 97.2 µM
U251 CNS
  GI50: 2.59 µM
  TGI: 5.9 µM
NCI-H226 lung
  GI50: 1.31 µM
  TGI: 16.1 µM
IGROV1 ovarian
  GI50: 11 µM
  TGI: 30.8 µM
SNB-19 CNS
  GI50: 3.42 µM
  TGI: 10.5 µM
SW-620 colon
  GI50: 4.4 µM
  TGI: 17.4 µM
LOX IMVI melanoma
  GI50: 4.67 µM
  TGI: 16.1 µM
MDA-MB-231 breast
  GI50: 3.39 µM
  TGI: 11.1 µM
MOLT-4 leukemia
  GI50: 3.58 µM
  TGI: 28.1 µM

## O=C([Se]C1C=CCCC1)c1ccc(C(=O)[Se]C2C=CCCC2)s1 (configuration not stated)
RXF 393 renal
  GI50: 2.37 µM
  TGI: 5.69 µM
CCRF-CEM leukemia
  GI50: 2.68 µM
  TGI: 8.66 µM
K-562 leukemia
  GI50: 3.96 µM
  TGI: 49.7 µM
COLO 205 colon
  GI50: 2.42 µM
  TGI: 7.25 µM
UACC-62 melanoma
  GI50: 1.92 µM
  TGI: 4.2 µM
T-47D breast
  GI50: 2.17 µM
  TGI: 5.19 µM
MCF7 breast
  GI50: 2.79 µM
  TGI: 10.6 µM
OVCAR-3 ovarian
  GI50: 2.13 µM
  TGI: 4.7 µM
BT-549 breast
  GI50: 3.55 µM
  TGI: 11.7 µM
DU-145 prostate
  GI50: 3.48 µM
  TGI: 11.5 µM
SK-OV-3 ovarian
  GI50: 2.33 µM
  TGI: 5.33 µM
HL-60(TB) leukemia
  GI50: 1.94 µM
  TGI: 4.81 µM
HT29 colon
  GI50: 4.01 µM
  TGI: 25.7 µM
HCT-15 colon
  GI50: 3.1 µM
  TGI: 11.6 µM
SR leukemia
  GI50: 2.26 µM
  TGI: 5.53 µM
HOP-92 NSCLC
  GI50: 2.85 µM
  TGI: 11 µM
UO-31 renal
  GI50: 1.73 µM
  TGI: 3.38 µM
SF-539 CNS
  GI50: 1.82 µM
  TGI: 3.23 µM
MDA-MB-468 breast
  GI50: 2.13 µM
  TGI: 5.18 µM
CAKI-1 renal
  GI50: 2.93 µM
  TGI: 10.2 µM
RPMI-8226 leukemia
  GI50: 2.53 µM
  TGI: 6.53 µM
ACHN renal
  GI50: 2.32 µM
  TGI: 5.58 µM
NCI-H460 lung
  GI50: 1.43 µM
  TGI: 10.1 µM
OVCAR-8 ovarian
  GI50: 1.79 µM
  TGI: 3.47 µM
UACC-257 melanoma
  GI50: 2.44 µM
  TGI: 6.89 µM
OVCAR-5 ovarian
  GI50: 2.07 µM
  TGI: 4.75 µM
NCI-H522 lung
  GI50: 1.71 µM
  TGI: 3.32 µM
SNB-75 CNS
  GI50: 1.38 µM
  TGI: 2.94 µM
TK-10 renal
  GI50: 1.87 µM
  TGI: 3.88 µM
A498 renal
  GI50: 2.47 µM
  TGI: 7.29 µM
M14 melanoma
  GI50: 2.02 µM
  TGI: 4.56 µM
HS 578T breast
  GI50: 2.36 µM
  TGI: 6.69 µM
A549 NSCLC
  GI50: 3.09 µM
  TGI: 18.7 µM
PC-3 prostate
  GI50: 1.95 µM
  TGI: 5.95 µM
NCI-H23 lung
  GI50: 1.95 µM
  TGI: 4.18 µM
SF-295 CNS
  GI50: 0.366 µM
  TGI: 1.64 µM
SF-268 CNS
  GI50: 3.34 µM
  TGI: 16.9 µM
HOP-62 NSCLC
  GI50: 1.17 µM
  TGI: 6.65 µM
MALME-3M melanoma
  GI50: 2.27 µM
  TGI: 5.52 µM
SK-MEL-5 melanoma
  GI50: 1.83 µM
  TGI: 3.99 µM
SK-MEL-2 melanoma
  GI50: 1.77 µM
  TGI: 3.71 µM
HCT-116 colon
  GI50: 2.87 µM
  TGI: 8.75 µM
SN12C renal
  GI50: 2.05 µM
  TGI: 4.34 µM
HCC-2998 colon
  GI50: 2.49 µM
  TGI: 6.19 µM
OVCAR-4 ovarian
  GI50: 2.19 µM
  TGI: 4.98 µM
KM12 colon
  GI50: 2.76 µM
  TGI: 7.08 µM
SK-MEL-28 melanoma
  GI50: 3.11 µM
  TGI: 11.6 µM
786-0 renal
  GI50: 2.02 µM
  TGI: 4.08 µM
MDA-MB-435
  GI50: 6.42 µM
  TGI: 23.1 µM
EKVX NSCLC
  GI50: 2.01 µM
  TGI: 4.7 µM
U251 CNS
  GI50: 1.94 µM
  TGI: 4.47 µM
NCI-H226 lung
  GI50: 3.42 µM
  TGI: 15.2 µM
IGROV1 ovarian
  GI50: 1.81 µM
  TGI: 3.48 µM
SNB-19 CNS
  GI50: 1.35 µM
  TGI: 3.56 µM
SW-620 colon
  GI50: 2.32 µM
  TGI: 6.01 µM
LOX IMVI melanoma
  GI50: 2.71 µM
  TGI: 8.88 µM
MDA-MB-231 breast
  GI50: 2.02 µM
  TGI: 4.16 µM
MOLT-4 leukemia
  GI50: 2.89 µM
  TGI: 8.34 µM
